From publication PMC9837035 (Nature Communications, 2023)
Values joined by “and” are separate entries in the source; they are usually repeats but may differ in a detail not shown here. Identical values can stand only once.

Columns and labels:
[1] = tested on: H3K9me2 at the β-globin locus; assay: ChIP-qPCR with antibody against H3K9me2 in HUDEP-2 cells; type: cell-based, human; parameters: ChIP-qPCR using antibodies against H3K9me2 in HUDEP-2 cells: scale not given here; conditions: for ChIP-qPCR using antibodies against H3K9me2 in HUDEP-2 cells: experiments 1-3, a/b replicates
Procedure: A total of 0.5–1 × 10^6 cells were cross-linked with 1% formaldehyde for 10 min at room temperature and the reaction was quenched with 250 mM glycine. Cross-linked cells were then lysed with buffer 1 (15 mM Tris-HCl (pH 7.5), 60 mM KCl, 15 mM NaCl, 5 mM MgCl2, 0.1 mM EGTA, 300 mM sucrose, […], 1 mM phenylmethanesulfonyl fluoride (PMSF), 0.5% NP40) and incubated on ice for 10 min. After centrifugation, the pellet was re-suspended in buffer 2 (15 mM Tris-HCl (pH 7.5), 60 mM KCl, 15 mM NaCl, 5 mM MgCl2, 0.1 mM EGTA, 1.2 M sucrose, […], 1 mM PMSF). After centrifugation, the pellet was then re-suspended in MNase buffer (50 mM Tris-HCl (pH 7.5), 1 mM CaCl2, 4 mM MgCl2, 320 mM sucrose, 1 mM PMSF) and digested with 100 U of micrococcal nuclease (Takara) at 37 °C for 15 min. After the reaction was quenched with 20 mM EDTA, the supernatants were incubated with antibodies (anti-H3K9me2 (1:100), Abcam, ab1220; anti-H3K9ac (1:100), Active Motif, 39917; Goat anti-IgG (H + L) (1:100), Jackson Immunoresearch; anti-BCL11A (1:100), Novus Biologicals, NB600-261; anti-ZBTB7A (1:100), Thermo Fisher Scientific, eBioscience (13E9); anti-CHD3 (1:100), Novus Biologicals, NB-100-60412; anti-CHD4 (1:100), abcam, ab240640) and Protein A/G PLUS-Agarose (Santa Cruz Biotechnology) overnight at 4 °C. Beads were washed sequentially once with the following buffers: wash buffer A (50 mM Tris-HCl (pH 7.5), 75 mM NaCl, 10 mM EDTA, 0.01% NP40), wash buffer B (50 mM Tris-HCl (pH 7.5), 100 mM NaCl, 10 mM EDTA, 0.01% NP40), wash buffer C (50 mM Tris-HCl (pH 7.5), 175 mM NaCl, 10 mM EDTA, 0.01% NP40). After treatment with proteinase K in buffer 4 (20 mM Tris-HCl (pH 8.0), 10 mM EDTA, 400 mM NaCl, 0.5% SDS) at 56 °C overnight, DNA was purified using the FastGene Gel/PCR Extraction Kit (Nippon Genetics). The samples were analyzed by qPCR. Primers are listed in Supplementary Table 10. ChIP-seq experiments were performed by GENEWIZ. Tracks were visualized using the integrative genome viewer. ChIP-seq analysis were analyzed Cutadapt (V1.9.1) for QC, FastQC (V0.10.1) for QC assessment, Bowtie (V2.1.0) for mapping, strand cross-correlation (SCC) for ChIP quality assessment, MACS2 for peak calling, and R package ChIPpeakAnno for Peak annotated.

[2] = tested on: γ-globin proteins in CD34+-derived cells; assay: γ-globin protein quantification by LC-MS/MS in CD34+-derived cells; type: cell-based, human
Procedure: The extraction and digestion of proteins were performed according to the method reported in a previous paper. Briefly, collected cell pellets, 120 μL of water, 12.5 μL of acetonitrile, and 12.5 μL of 1% formic acid were mixed and sonicated. The mixture was centrifuged to remove the cell debris and the supernatant was collected. Ten microliters of supernatant was reduced by dithiothreitol, alkylated with iodoacetamide, and digested with trypsin/Lys-C mix (Promega) in 50 mM ammonium bicarbonate (pH 8.0) (Sigma) at 37 °C overnight. For protein quantification analysis by LC–MS/MS, 10 pmol of stable isotope–labeled peptides (synthesized by the Support Unit for Bio-Material Analysis, RIKEN Center for Brain Science) were added to the digested sample as an internal standard. The digested sample was stored at −25 °C until analysis. The trypsinized sample was applied to an EASY-nLC 1000 liquid chromatograph (Thermo Fisher Scientific) and Q-Exactive mass spectrometer (Thermo Fisher Scientific) equipped with a nanospray ion source (Thermo Fisher Scientific). […]
Protein quantification was performed using Vanquish UHPLC (Thermo Fisher Scientific) and TSQ-Vantage EMR (Thermo Fisher Scientific) with a HESI-II ion source (Thermo Fisher Scientific) in multiple reaction monitoring (MRM) mode. […]

[3] = target: PRMT5/MEP50 (Homo sapiens, UniProt O14744); assay: Radioisotope-based methyltransferase assay (selectivity)
[4] = target: T1, EZH2 (Homo sapiens, UniProt Q15910); assay: as above
[5] = Liver microsomal stability assay, rat; type: in vitro ADME; conditions: for Metabolic stability, % remaining of RK-701: Rat
Procedure: [Human/Rat] Liver microsome analyses (human, rat) were performed in triplicate by the Sumika Chemical Analysis Service (SCAS) according to the standard protocols. […] [Dog/Monkey] Liver microsome analyses (dog, monkey) were performed in duplicate by RIKEN according to the same protocols as SCAS.

[6] = target: PRMT7 (Homo sapiens, UniProt Q9NVM4)
[7] = target: T1, EZH2; assay: biochemical

T1 sequence (Q15910 whole entry): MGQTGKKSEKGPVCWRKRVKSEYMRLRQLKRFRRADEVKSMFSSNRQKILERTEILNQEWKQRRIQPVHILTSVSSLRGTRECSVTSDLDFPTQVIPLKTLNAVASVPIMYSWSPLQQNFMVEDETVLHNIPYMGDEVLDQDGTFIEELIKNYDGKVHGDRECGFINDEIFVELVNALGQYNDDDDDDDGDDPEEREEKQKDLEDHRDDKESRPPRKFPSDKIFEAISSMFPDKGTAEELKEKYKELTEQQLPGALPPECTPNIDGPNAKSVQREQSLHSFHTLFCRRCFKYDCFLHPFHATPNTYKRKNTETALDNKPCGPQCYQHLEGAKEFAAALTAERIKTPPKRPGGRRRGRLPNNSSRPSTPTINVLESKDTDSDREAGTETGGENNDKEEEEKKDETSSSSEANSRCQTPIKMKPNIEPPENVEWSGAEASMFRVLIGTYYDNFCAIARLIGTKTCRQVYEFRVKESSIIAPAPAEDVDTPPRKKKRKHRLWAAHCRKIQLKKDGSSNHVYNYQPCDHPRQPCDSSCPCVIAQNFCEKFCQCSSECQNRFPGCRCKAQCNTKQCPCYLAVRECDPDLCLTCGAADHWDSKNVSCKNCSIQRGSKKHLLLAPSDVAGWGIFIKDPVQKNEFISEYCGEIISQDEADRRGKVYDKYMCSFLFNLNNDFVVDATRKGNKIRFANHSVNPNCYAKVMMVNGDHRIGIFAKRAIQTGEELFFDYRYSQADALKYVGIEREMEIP
T1 sequence (O75530 whole entry partner): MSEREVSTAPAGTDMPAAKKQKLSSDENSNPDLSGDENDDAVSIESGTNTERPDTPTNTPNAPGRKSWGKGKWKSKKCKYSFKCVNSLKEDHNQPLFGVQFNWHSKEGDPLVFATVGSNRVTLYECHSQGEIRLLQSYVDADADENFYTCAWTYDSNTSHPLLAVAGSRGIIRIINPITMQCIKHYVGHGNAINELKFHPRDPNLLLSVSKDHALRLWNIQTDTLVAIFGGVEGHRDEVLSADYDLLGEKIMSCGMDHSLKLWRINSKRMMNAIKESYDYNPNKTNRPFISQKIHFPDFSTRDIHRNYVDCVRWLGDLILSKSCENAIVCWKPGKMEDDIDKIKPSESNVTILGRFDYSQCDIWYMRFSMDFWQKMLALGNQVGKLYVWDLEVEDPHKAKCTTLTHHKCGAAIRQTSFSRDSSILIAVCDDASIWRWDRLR
T1 sequence (Q15022 whole entry partner): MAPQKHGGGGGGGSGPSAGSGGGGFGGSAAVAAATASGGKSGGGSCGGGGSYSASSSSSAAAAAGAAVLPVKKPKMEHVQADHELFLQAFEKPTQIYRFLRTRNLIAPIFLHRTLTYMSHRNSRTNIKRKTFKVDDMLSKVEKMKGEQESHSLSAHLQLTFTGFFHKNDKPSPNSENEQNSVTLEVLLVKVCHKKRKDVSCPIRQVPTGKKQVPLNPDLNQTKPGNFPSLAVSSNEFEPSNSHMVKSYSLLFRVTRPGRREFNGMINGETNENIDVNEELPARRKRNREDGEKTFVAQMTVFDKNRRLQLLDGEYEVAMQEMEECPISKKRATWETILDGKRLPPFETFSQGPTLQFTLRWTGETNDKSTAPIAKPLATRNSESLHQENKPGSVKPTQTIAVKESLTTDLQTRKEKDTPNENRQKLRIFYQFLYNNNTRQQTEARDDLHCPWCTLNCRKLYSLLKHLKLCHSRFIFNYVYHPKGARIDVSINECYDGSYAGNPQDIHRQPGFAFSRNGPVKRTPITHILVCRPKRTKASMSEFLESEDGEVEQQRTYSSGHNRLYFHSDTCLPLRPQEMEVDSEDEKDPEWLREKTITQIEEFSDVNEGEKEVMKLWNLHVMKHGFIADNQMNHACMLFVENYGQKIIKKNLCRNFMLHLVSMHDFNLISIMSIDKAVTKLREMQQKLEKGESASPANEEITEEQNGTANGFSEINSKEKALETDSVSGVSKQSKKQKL
T1 sequence (Q09028 whole entry partner): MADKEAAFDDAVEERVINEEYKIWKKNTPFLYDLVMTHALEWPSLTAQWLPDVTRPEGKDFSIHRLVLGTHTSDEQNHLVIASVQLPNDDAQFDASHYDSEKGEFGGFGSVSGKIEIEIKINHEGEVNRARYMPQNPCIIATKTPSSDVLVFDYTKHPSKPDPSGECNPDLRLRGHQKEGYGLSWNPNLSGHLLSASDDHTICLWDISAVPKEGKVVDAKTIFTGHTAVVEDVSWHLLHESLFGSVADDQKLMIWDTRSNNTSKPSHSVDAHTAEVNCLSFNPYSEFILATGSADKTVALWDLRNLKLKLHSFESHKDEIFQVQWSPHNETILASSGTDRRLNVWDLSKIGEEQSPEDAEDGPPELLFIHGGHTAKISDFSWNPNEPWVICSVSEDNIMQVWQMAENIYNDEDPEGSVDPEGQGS
T1 sequence (Q6ZN18 whole entry partner): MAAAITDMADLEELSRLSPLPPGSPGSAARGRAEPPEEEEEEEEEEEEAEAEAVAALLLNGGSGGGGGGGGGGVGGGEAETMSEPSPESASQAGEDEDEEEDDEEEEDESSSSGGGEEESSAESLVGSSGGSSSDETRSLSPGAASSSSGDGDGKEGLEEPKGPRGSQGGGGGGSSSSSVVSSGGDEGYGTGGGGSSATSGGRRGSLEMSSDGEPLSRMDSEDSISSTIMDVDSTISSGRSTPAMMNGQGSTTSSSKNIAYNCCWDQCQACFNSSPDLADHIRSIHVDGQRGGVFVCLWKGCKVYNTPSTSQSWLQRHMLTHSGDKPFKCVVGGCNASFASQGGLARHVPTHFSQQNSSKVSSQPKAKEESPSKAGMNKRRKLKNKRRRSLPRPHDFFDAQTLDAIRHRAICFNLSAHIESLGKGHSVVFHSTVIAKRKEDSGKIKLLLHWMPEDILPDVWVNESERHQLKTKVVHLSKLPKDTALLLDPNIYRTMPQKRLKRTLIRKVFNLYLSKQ
Chain of PRMT7 (Q9NVM4 whole entry): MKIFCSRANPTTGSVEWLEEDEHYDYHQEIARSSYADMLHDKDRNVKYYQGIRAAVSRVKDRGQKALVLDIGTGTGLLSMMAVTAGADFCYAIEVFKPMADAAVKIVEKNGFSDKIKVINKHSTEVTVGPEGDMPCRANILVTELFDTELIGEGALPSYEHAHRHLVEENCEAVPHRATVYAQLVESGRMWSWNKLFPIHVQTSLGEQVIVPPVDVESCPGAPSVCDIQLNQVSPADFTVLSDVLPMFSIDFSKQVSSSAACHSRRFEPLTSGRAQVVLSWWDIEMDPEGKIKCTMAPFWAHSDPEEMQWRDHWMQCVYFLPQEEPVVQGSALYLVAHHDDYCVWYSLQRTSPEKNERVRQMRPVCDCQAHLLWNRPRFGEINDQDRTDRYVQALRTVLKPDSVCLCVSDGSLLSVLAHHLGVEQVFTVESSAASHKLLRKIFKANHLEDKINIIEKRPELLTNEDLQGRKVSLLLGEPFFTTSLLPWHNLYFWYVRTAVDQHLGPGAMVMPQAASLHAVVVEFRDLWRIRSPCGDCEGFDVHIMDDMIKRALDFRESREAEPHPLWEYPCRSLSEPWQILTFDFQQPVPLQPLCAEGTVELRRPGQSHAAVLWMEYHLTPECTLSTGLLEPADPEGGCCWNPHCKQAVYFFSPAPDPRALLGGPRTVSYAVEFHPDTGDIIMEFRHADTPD
Chain of PRMT5/MEP50 (O14744 whole entry): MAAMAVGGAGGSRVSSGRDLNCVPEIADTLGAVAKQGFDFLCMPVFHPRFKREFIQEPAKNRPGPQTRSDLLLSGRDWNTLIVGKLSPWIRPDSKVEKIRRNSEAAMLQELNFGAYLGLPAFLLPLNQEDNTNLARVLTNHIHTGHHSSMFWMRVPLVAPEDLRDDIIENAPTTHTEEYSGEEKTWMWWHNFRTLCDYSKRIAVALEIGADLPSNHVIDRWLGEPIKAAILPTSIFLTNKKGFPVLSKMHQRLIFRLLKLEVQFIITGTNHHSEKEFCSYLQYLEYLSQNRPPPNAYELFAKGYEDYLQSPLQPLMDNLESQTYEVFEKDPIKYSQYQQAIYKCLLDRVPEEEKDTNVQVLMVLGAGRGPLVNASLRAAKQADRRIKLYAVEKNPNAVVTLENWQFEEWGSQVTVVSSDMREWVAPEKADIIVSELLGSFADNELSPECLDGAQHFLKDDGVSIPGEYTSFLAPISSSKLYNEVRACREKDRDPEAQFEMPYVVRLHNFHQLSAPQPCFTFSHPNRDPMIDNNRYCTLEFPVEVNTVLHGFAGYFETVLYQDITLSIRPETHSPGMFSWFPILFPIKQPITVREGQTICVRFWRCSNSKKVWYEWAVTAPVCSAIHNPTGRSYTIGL
Chain of PRMT5/MEP50 (Q9BQA1 whole entry partner): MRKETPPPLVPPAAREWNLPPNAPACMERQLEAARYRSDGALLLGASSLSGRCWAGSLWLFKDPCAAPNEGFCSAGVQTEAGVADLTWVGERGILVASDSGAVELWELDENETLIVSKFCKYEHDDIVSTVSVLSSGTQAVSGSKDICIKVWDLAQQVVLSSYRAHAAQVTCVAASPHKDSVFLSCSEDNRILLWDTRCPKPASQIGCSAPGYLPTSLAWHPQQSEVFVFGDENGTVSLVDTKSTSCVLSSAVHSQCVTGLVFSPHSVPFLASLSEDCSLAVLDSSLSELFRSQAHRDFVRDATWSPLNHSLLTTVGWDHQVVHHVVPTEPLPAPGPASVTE

SMILES: NC(=O)NO [Hydroxyurea, hydroxyurea]
- ChIP-qPCR using antibodies against H3K9me2 in HUDEP-2 cells ([1]; BGLT3 locus): 0.3036 and 0.9734 and 0.09549 and 0.1907 and 0.4324 and 0.08257
- ChIP-qPCR using antibodies against H3K9me2 in HUDEP-2 cells ([1]; HS1): 0.1874 and 0.4067 and 0.1711 and 0.2985 and 0.4573 and 0.2803
- ChIP-qPCR using antibodies against H3K9me2 in HUDEP-2 cells ([1]; HS2): 0.813 and 0.5625 and 0.04813 and 0.5561 and 0.988
- ChIP-qPCR using antibodies against H3K9me2 in HUDEP-2 cells ([1]; HS3): 0.3829 and 1.033 and 0.3275 and 0.3135 and 0.5984 and 0.1213
- ChIP-qPCR using antibodies against H3K9me2 in HUDEP-2 cells ([1]; HS4): 0.2695 and 0.4846 and 0.05083 and 0.7217 and 0.09433
- H3K9me2 levels at the β-globin gene locus ([1]; HUDEP-2, 200 μM, 4 days): did not alter H3K9me2 levels
- ChIP-qPCR using antibodies against H3K9me2 in HUDEP-2 cells ([1]; β-globin promoter): 0.2611 and 0.4698 and 0.1317 and 0.1934 and 0.3991 and 0.1179
- ChIP-qPCR using antibodies against H3K9me2 in HUDEP-2 cells ([1]; γ-globin promoter): 0.6385 and 1.7009 and 0.2449 and 0.8192 and 0.4081
- ChIP-qPCR using antibodies against H3K9me2 in HUDEP-2 cells ([1]; δ-globin promoter): 0.1111 and 0.2374 and 0.06666 and 0.1168 and 0.2688 and 0.05187
- Percentage of γ-globin proteins relative to total β-like globin proteins ([2]; day 11, 10 μM): 8.1% and 10.3%
- Percentage of γ-globin proteins relative to total β-like globin proteins ([2]; day 11, 50 μM): 8.1% and 10.3% and 14.3%

SMILES: Cc1c(C(=O)NC(CCC2CC2)C(=O)Nc2ccc(C#N)cc2)[nH]c2c1C(=O)CC(C)(C)C2 (stereo not shown) [RK-701]
- IC50 [3]: > 100 µM
- IC50 [4]: > 100 µM
- Metabolic stability, % remaining of RK-701 ([5]; Time 5, replicate values): 89% and 81.8%
- Metabolic stability, % remaining of RK-701 ([5]; Time 10, replicate values): 86.2% and 80.2%
- Metabolic stability, % remaining of RK-701 ([5]; Time 20, replicate values): 63% and 58.9%
- Metabolic stability, % remaining of RK-701 ([5]; Time 30, replicate values): 53.3% and 55.8%
- Metabolic stability, % remaining of RK-701 ([5]; Time 60, replicate values): 36.1% and 33.5%
- remaining at 5 min, 1 µM ([5]; rat, liver microsomes, Metabolic stability, % remaining of RK-701, Rat, Time 5, replicate values): 89.1%
- remaining at 10 min, 1 µM ([5]; rat, liver microsomes, Metabolic stability, % remaining of RK-701, Rat, Time 10, replicate values): 83.1%
- remaining at 20 min, 1 µM ([5]; rat, liver microsomes, Metabolic stability, % remaining of RK-701, Rat, Time 20, replicate values): 61.7%
- remaining at 60 min, 1 µM ([5]; rat, liver microsomes, Metabolic stability, % remaining of RK-701, Rat, Time 60, replicate values): 35.6%
- microsomal CLint at 1 μM ([5]; rat, liver microsomes, read-out: Metabolic stability in liver microsomes CLint): 33 µL/min/mg
- IC50 [6]: > 100 µM
- IC50 [7]: > 100 µM
